Where two headings read alike, the source gives them in different places.
Key:
[1] = assay type: in vivo; settings: mouse
Method: The ^99m Tc-PETS solution as obtained in Example 1 was injected into mice through the tail vein in an amount of 0.1 ml/animal. The mice were sacrificed at pre-determined times after the injection. The radioactivities and weights of various organs and blood taken from the sacrificed mice were measured, and the remaining percentages per gram of each organ were determined. The results are shown in Table 1 wherein the relative ratio of each organ to blood was also shown therein.

[2] = 7 minutes from the administration

Tc-99m-labeled pentane-2,4-dione-bis(N-methylthiosemicarbazone) complex compound [^99m Tc-PETS]
distribution ratio brain/blood [1, 2]: 1.67 ratio (unitless) | distribution ratio heart/blood [1, 2]: 2.16 ratio (unitless) | distribution ratio pancreas/blood [1, 2]: 2.66 ratio (unitless) | distribution to brain, heart and pancreas after administration ([1]; i.v. tail vein): rapidly distributed to brain, heart and pancreas | Body distribution, Blood ([1]; i.v. tail vein, 0.5 min): 4.31 %/g organ | Body distribution, Brain ([1]; i.v. tail vein, 0.5 min): 4.68 %/g organ | Body distribution, Heart ([1]; i.v. tail vein, 0.5 min): 15.60 %/g organ | Body distribution, Intestine ([1]; i.v. tail vein, 0.5 min): 2.60 %/g organ | Body distribution, Kidney ([1]; i.v. tail vein, 0.5 min): 15.30 %/g organ | Body distribution, Liver ([1]; i.v. tail vein, 0.5 min): 4.83 %/g organ | Body distribution, Lung ([1]; i.v. tail vein, 0.5 min): 11.80 %/g organ | Body distribution, Pancreas ([1]; i.v. tail vein, 0.5 min): 7.11 %/g organ | Body distribution, Spleen ([1]; i.v. tail vein, 0.5 min): 2.20 %/g organ | Body distribution, Stomach ([1]; i.v. tail vein, 0.5 min): 1.95 %/g organ | Brain/blood ratio ([1]; i.v. tail vein, 0.5 min): 1.09 | Pancreas/blood ratio ([1]; i.v. tail vein, 0.5 min): 1.60 | heart/blood ratio ([1]; i.v. tail vein, 0.5 min): 3.52 | Body distribution, Blood ([1]; i.v. tail vein, 2 min): 3.21 %/g organ | Body distribution, Brain ([1]; i.v. tail vein, 2 min): 4.16 %/g organ | Body distribution, Heart ([1]; i.v. tail vein, 2 min): 6.31 %/g organ | Body distribution, Intestine ([1]; i.v. tail vein, 2 min): 3.17 %/g organ | Body distribution, Kidney ([1]; i.v. tail vein, 2 min): 10.90 %/g organ | Body distribution, Liver ([1]; i.v. tail vein, 2 min): 11.70 %/g organ | Body distribution, Lung ([1]; i.v. tail vein, 2 min): 8.18 %/g organ | Body distribution, Pancreas ([1]; i.v. tail vein, 2 min): 7.32 %/g organ | Body distribution, Spleen ([1]; i.v. tail vein, 2 min): 3.24 %/g organ | Body distribution, Stomach ([1]; i.v. tail vein, 2 min): 2.66 %/g organ | Brain/blood ratio ([1]; i.v. tail vein, 2 min): 1.30 | Pancreas/blood ratio ([1]; i.v. tail vein, 2 min): 2.29 | heart/blood ratio ([1]; i.v. tail vein, 2 min): 2.17 | Body distribution, Blood ([1]; i.v. tail vein, 5 min): 2.34 %/g organ | Body distribution, Brain ([1]; i.v. tail vein, 5 min): 2.93 %/g organ | Body distribution, Heart ([1]; i.v. tail vein, 5 min): 4.08 %/g organ | Body distribution, Intestine ([1]; i.v. tail vein, 5 min): 3.65 %/g organ | Body distribution, Kidney ([1]; i.v. tail vein, 5 min): 6.20 %/g organ | Body distribution, Liver ([1]; i.v. tail vein, 5 min): 20.10 %/g organ | Body distribution, Lung ([1]; i.v. tail vein, 5 min): 3.95 %/g organ | Body distribution, Pancreas ([1]; i.v. tail vein, 5 min): 4.30 %/g organ | Body distribution, Spleen ([1]; i.v. tail vein, 5 min): 3.72 %/g organ | Body distribution, Stomach ([1]; i.v. tail vein, 5 min): 1.97 %/g organ | Brain/blood ratio ([1]; i.v. tail vein, 5 min): 1.37 | Pancreas/blood ratio ([1]; i.v. tail vein, 5 min): 1.86 | heart/blood ratio ([1]; i.v. tail vein, 5 min): 1.88 | Body distribution, Blood ([1]; i.v. tail vein, 7 min): 1.21 %/g organ | Body distribution, Brain ([1]; i.v. tail vein, 7 min): 1.85 %/g organ | Body distribution, Heart ([1]; i.v. tail vein, 7 min): 2.41 %/g organ | Body distribution, Intestine ([1]; i.v. tail vein, 7 min): 2.96 %/g organ | Body distribution, Kidney ([1]; i.v. tail vein, 7 min): 5.03 %/g organ | Body distribution, Liver ([1]; i.v. tail vein, 7 min): 19.10 %/g organ | Body distribution, Lung ([1]; i.v. tail vein, 7 min): 2.87 %/g organ | Body distribution, Pancreas ([1]; i.v. tail vein, 7 min): 3.18 %/g organ | Body distribution, Spleen ([1]; i.v. tail vein, 7 min): 3.06 %/g organ | Body distribution, Stomach ([1]; i.v. tail vein, 7 min): 1.63 %/g organ | Brain/blood ratio ([1]; i.v. tail vein, 7 min): 1.67 | Pancreas/blood ratio ([1]; i.v. tail vein, 7 min): 2.66 | heart/blood ratio ([1]; i.v. tail vein, 7 min): 2.16 | Body distribution, Blood ([1]; i.v. tail vein, 15 min): 1.46 %/g organ | Body distribution, Brain ([1]; i.v. tail vein, 15 min): 0.97 %/g organ | Body distribution, Heart ([1]; i.v. tail vein, 15 min): 1.76 %/g organ | Body distribution, Intestine ([1]; i.v. tail vein, 15 min): 4.63 %/g organ | Body distribution, Kidney ([1]; i.v. tail vein, 15 min): 4.40 %/g organ | Body distribution, Liver ([1]; i.v. tail vein, 15 min): 21.90 %/g organ | Body distribution, Lung ([1]; i.v. tail vein, 15 min): 2.56 %/g organ | Body distribution, Pancreas ([1]; i.v. tail vein, 15 min): 2.19 %/g organ | Body distribution, Spleen ([1]; i.v. tail vein, 15 min): 1.98 %/g organ | Body distribution, Stomach ([1]; i.v. tail vein, 15 min): 1.50 %/g organ | Brain/blood ratio ([1]; i.v. tail vein, 15 min): 0.68 | Pancreas/blood ratio ([1]; i.v. tail vein, 15 min): 1.52 | heart/blood ratio ([1]; i.v. tail vein, 15 min): 1.21 | Body distribution, Blood ([1]; i.v. tail vein, 30 min): 3.27 %/g organ | Body distribution, Brain ([1]; i.v. tail vein, 30 min): 0.63 %/g organ | Body distribution, Heart ([1]; i.v. tail vein, 30 min): 2.01 %/g organ | Body distribution, Intestine ([1]; i.v. tail vein, 30 min): 7.68 %/g organ | Body distribution, Kidney ([1]; i.v. tail vein, 30 min): 5.06 %/g organ | Body distribution, Liver ([1]; i.v. tail vein, 30 min): 31.70 %/g organ | Body distribution, Lung ([1]; i.v. tail vein, 30 min): 3.20 %/g organ | Body distribution, Pancreas ([1]; i.v. tail vein, 30 min): 2.05 %/g organ | Body distribution, Spleen ([1]; i.v. tail vein, 30 min): 2.85 %/g organ | Body distribution, Stomach ([1]; i.v. tail vein, 30 min): 2.31 %/g organ | Brain/blood ratio ([1]; i.v. tail vein, 30 min): 0.19 | Pancreas/blood ratio ([1]; i.v. tail vein, 30 min): 0.69 | heart/blood ratio ([1]; i.v. tail vein, 30 min): 0.62 | octanol/buffer distribution ratio (n-octanol / 0.06 M phosphate buffer, pH 7.0, 37° C., 15 min): 191.3 | lipophilic property compared with ^99m Tc-KTS (octanol/buffer, pH 7): much higher than that of ^99m Tc-KTS
